The record followed here is PMC5833756, “A novel ruthenium complex with xanthoxylin induces S-phase arrest and causes ERK1/2-mediated apoptosis in HepG2 cells through a p53-independent pathway” (Cell Death & Disease, 2018).

pIC50: −log10 of the molar value. Read-outs that look alike come from different tables or passages of the source. Marks after values point to notes of the source that are not given here. Residues, ends and D or L forms follow the SMILES beside them. *: point of attachment. Cbz = O=C(OCc1ccccc1)*; CH2F = FC*

For data set [1], the system named is HepG2 cells. Put plainly: Annexin V/PI staining assay (flow cytometry). (A flow cytometer gives signals particle by particle.)
Method: For apoptosis detection, we used the FITC Annexin V Apoptosis Detection Kit I (BD Biosciences), and the analysis was performed according to the manufacturer’s instructions. Briefly, cells were washed twice with saline and then resuspended in 100 μL of binding buffer with 5 μL of PI and 5 μL of FITC Annexin V. The cells were gently mixed by vortexing and incubated for 15 min at room temperature in the dark. Afterwards, 400 μL of binding buffer was added to each tube, and the cell fluorescence was determined by flow cytometry, as described above. The percent of viable, early apoptotic, late apoptotic and necrotic cells were determined. […] The cells were then trypsinized, and the FITC Annexin V Apoptosis Detection assay was conducted as described above.
The test system of data set [2] is HepG2 cells. Nature of the data set: DNA synthesis quantification (methyl-[3H]-thymidine incorporation). Format: cell-based, human. The settings on record: HepG2, 12 μM. The method, then:
Cellular DNA synthesis was quantified by the incorporation of methyl-[^3H]-thymidine. Methyl-[^3H]-thymidine is a radiolabeled DNA precursor that is incorporated into newly synthesized DNA. Briefly, the complex was added along with 1 µCi of methyl-[^3H]-thymidine (PerkinElmer; Shelton, CT, USA) and incubated for 3 h. After this incubation period, cultures were harvested using a cell harvester (Brandel, Inc., Gaithersburg, MD, USA), and the amount of incorporated^3H-thymidine was determined using a liquid scintillation cocktail Hidex Maxilight (PerkinElmer Life Sciences; Groningen, GE, Netherlands) and a plate CHAMELEON V multilabel Counter (Mustionkatu 2, Turku, Finland). Mitoxantrone (Sigma-Aldrich) was used as the positive control.

The test system of a further data set is HCT116. Format: cell-based, human. The note with it: HCT116 (human colon carcinoma), 72 h.
The test system of a further data set is HepG2. The class given is cell-based, human. The note with it: HepG2 (human hepatocellular carcinoma), monolayer, 72 h.
The next data set concerns HSC-3. Format: cell-based, human. The settings on record: HSC-3 (human oral squamous cell carcinoma), 72 h.
A further data set deals with SCC-4. Format: cell-based, human. The settings on record: SCC-4 (human oral squamous cell carcinoma), 72 h.
Another data set relates to HL-60. The class given is cell-based, human. The note with it: HL-60 (human promyelocytic leukemia), 72 h.
The next data set relates to K-562. Format: cell-based, human. The settings on record: K-562 (human chronic myelogenous leukemia), 72 h.
The test system of another data set is B16-F10. Format: cell-based, mouse. The note with it: B16-F10 (murine melanoma), 72 h.
In a further data set the test system is MRC-5. Format: cell-based. The settings on record: MRC-5 (human lung fibroblast, non-cancer), 72 h.
The next data set relates to PBMC. Format: cell-based. The note with it: PBMC (human peripheral blood mononuclear cells, non-cancer), 72 h.
The test system of data set [3] is multicellular spheroids formed from HepG2 cells. Put plainly: 3D multicellular spheroid culture, alamar blue. The class given is cell-based, human. The settings on record: HepG2 3D spheroids, 72 h. How it is done:
HepG2 cells were cultivated in 3D multicellular spheroids. Briefly, 100 μL of cell solution (0.5 × 10^6 cells/mL) was added to a 96-well plate with a cell-repellent surface (Greiner Bio-One, Kremsmünster, Austria) and cultured in complete medium plus 3% Matrigel (BD Biosciences, San Jose, CA, USA). Spheroids with stable structures formed after three days. Then, the spheroids were exposed to a range of drug concentrations for 72 h. The negative control received the vehicle that was used for diluting the complex tested. In the end of the experiment, morphological changes were examined by light microscopy (Olympus BX41, Tokyo, Japan) using Image-Pro software (Media Cybernetics, Inc. Silver Spring, USA), and cell viability was quantified by alamar blue assay as described above.
In general terms: Resazurin is reduced to fluorescent resorufin, in cell work by metabolically active cells.

The subject of data set [4] is HepG2 cells. Nature of the data set: Trypan blue exclusion assay. The class given is cell-based, human.
In data set [5] the test system is HepG2 cells. Format: cell-based, human. The note with it: DOX 2 µM, OXA 10 µM, RCX 12 µM. The method, then: Briefly, the cells were harvested in a permeabilization solution containing 0.1% Triton X-100, 2 µg/mL PI, 0.1% sodium citrate and 100 µg/mL RNAse (all from Sigma-Aldrich) and incubated in the dark for 15 min at room temperature. Finally, cell fluorescence was measured by flow cytometry with a BD LSRFortessa cytometer using BD FACSDiva Software (BD Biosciences) and FlowJo Software 10 (FlowJo Lcc; Ashland, OR, USA). Ten thousand events were evaluated per experiment, and cellular debris was omitted from the analysis.

In another data set the test system is WT SV40 MEF. The class given is cell-based, mouse. The note with it: Mus musculus, 72 h.
Another data set deals with BAD KO SV40 MEF. Format: cell-based, mouse. The note with it: Mus musculus, 72 h.
The next data set concerns HepG2 cell xenografts. Nature of the data set: Human hepatocellular carcinoma xenograft model. The note with it: 0.3 mg/kg doxorubicin, 10 mg/kg 5-fluorouracil, i.p. once a day for 21 days. The class given is in vivo, C.B-17 SCID mice. (A xenograft is tissue or cells of one species grown in another, often human tumour cells in immunodeficient mice.)
The conditions of data set [6]: DOX 0.3 mg/kg, 5-FU 10 mg/kg.
Method: (§1) HepG2 cells (1 × 10^7 cells per 500 µL) were implanted subcutaneously into the left front armpit of the mice. […] The treatments were initiated one day after the tumor cell injection. The animals were treated intraperitoneally (200 µL per animal) once daily for 21 consecutive days. On the 22nd day, the animals were anesthetized, and peripheral blood samples were collected from the brachial artery. Animals were euthanized by anesthetic overdose, and tumors were excised and weighed.
To assess the toxicological effects, mice were weighed at the beginning and at the end of the experiment. […] Hematological analysis was performed using light microscopy. Livers, kidneys, lungs and hearts were removed, weighed and examined for any signs of gross lesions, color changes and/or hemorrhages. After gross macroscopic examination, the tumors, livers, kidneys, lungs and hearts were fixed in 4% formalin buffer and embedded in paraffin. Tissue sections were stained with hematoxylin and eosin chromogens, and a pathologist performed the analysis under a light microscope.
Data set [7] relates to panel of 15 cancer cell lines and 3 non-cancer cells. Nature of the data set: Alamar blue cytotoxicity assay, whole panel. Format: cell-based. The settings on record: any cells of the panel, 72 h. The method, then:
A panel of 15 cancer cell lines, 3 non-cancer cells and 1 mutant and its parental cell line were selected for this study, as detailed in Table S5. The cells were cultured in RPMI 1640 medium (Gibco-BRL, Gaithersburg, MD, USA) with 10% fetal bovine serum (Life, Carlsbad, CA, USA), 2 mM L-glutamine (Vetec Química Fina, Duque de Caxias, RJ, Brazil) and 50 μg/mL gentamycin (Life, Carlsbad, CA, USA). Adherent cells were collected by treatment with 0.25% trypsin EDTA solution (Gibco-BRL). All cell lines were cultured in flasks at 37 °C in 5% CO2 and subcultured every 3–4 days to maintain exponential growth. All cell lines were tested for mycoplasma using a mycoplasma stain kit (Sigma-Aldrich) to validate the use of cells free from contamination. […]
Cell viability was quantified colorimetrically using the alamar blue assay according to Ahmed et al.[34]. […] Absorbance was measured at 570 nm and 600 nm using the SpectraMax 190 Microplate Reader (Molecular Devices, Sunnyvale, CA, USA), and the drug effect was quantified as a percent of the absorbance of the control-treated cells.

The mark [8] stands for this setting: HepG2, 2 h pretreatment (50 µM Z-VAD(Ome)-FMK, 20 µM Z-IETD-FMK, 20 µM Z-LEHD-FMK, 5 µM U-0126, 5 µM SP 600125, 5 µM PD 169316, 10 µM cyclic pifithrin-α), then 12 µM RCX 48 h.
The mark [9] stands for this setting: peripheral blood, i.p. 21 days, RCX 2.5 mg/kg.
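Throughout, for Final body weight: mice bearing subcutaneous HepG2 xenografts, given intraperitoneal doses once daily for 21 days, weighed at start and end, blood leukocytes counted by light microscopy on day 22.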
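Throughout, for Heart relative weight: mice bearing subcutaneous HepG2 xenografts, given intraperitoneal doses once daily for 21 days, weighed at start and end, blood leukocytes counted by light microscopy on day 22.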
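Throughout, for Initial body weight: mice bearing subcutaneous HepG2 xenografts, given intraperitoneal doses once daily for 21 days, weighed at start and end, blood leukocytes counted by light microscopy on day 22.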
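Throughout, for Kidney relative weight: mice bearing subcutaneous HepG2 xenografts, given intraperitoneal doses once daily for 21 days, weighed at start and end, blood leukocytes counted by light microscopy on day 22.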

Method for HepG2 cell xenografts: Animals were housed in cages with free access to food and water. All animals were kept under a 12:12 h light-dark cycle (lights on at 6:00 a.m.). The local Animal Ethics Committee approved the experimental protocol (number 06/2015).
as §1

`COC(=O)CC[C@H](NC(=O)[C@H](CC(C)C)NC(=O)OCc1ccccc1)C(=O)N[C@@H](Cc1cnc[nH]1)C(=O)N[C@@H](CC(=O)OC)C(=O)CF` [Z-LEHD-FMK] (Cbz-LE(OMe)HD(OMe)-CH2F): the “effect of inhibitor pretreatment on RCX-induced apoptosis” value (“effect of inhibitor pretreatment” below) in the data set with HepG2 cells [1] (setting [8]) is “prevented the RCX-induced apoptosis”.
Turning to `CC[C@H](C)[C@H](NC(=O)OCc1ccccc1)C(=O)N[C@@H](CCC(=O)OC)C(=O)N[C@H](C(=O)N[C@@H](CC(=O)OC)C(=O)CF)[C@@H](C)O` [Z-IETD-FMK] (Cbz-IE(OMe)TD(OMe)-CH2F), in the data set on HepG2 cells [1], the “effect of inhibitor pretreatment” value was “prevented the RCX-induced apoptosis”.
Consider `O=C1c2c(O)ccc(O)c2C(=O)c2c(NCCNCCO)ccc(NCCNCCO)c21` [Mitoxantrone], for which the “reduction of DNA synthesis” value in the data set with HepG2 cells [2] came to 55.2%.
Turning to `O=C1[O][Pt]2([NH][C@@H]3CCCC[C@H]3[NH]2)[O]C1=O` [OXA, oxaliplatin], the negative-log IC50 (pIC50) (as a rule, the negative decadic logarithm of the IC50, by convention in mol/L) with HCT116 is 5.39; in the data set on HepG2 it was 5.66; in the data set on HSC-3, 5.48; in the data set on SCC-4 it was 5.11; in the data set on HL-60, 6.22; in the data set on K-562, 6.00. Moreover, the pIC50 with B16-F10 is 5.66; with MRC-5, 5.02; with PBMC, 5.03; in data set [3], 5.18. The “change in the number of viable cells” value in the data set on HepG2 cells [4] (HepG2, 24 h, DOX 2 µM, OXA 10 µM) is “reduced the number of viable cells”. Moreover, the “DNA content S” value in the data set with HepG2 cells [5] (HepG2, 12 h) is reported as 12.9 ± 4.4%; with HepG2 cells [5] (HepG2, 24 h), 18.5 ± 1.4%; with HepG2 cells [5] (HepG2, 48 h), 21.2 ± 1.7 %; in the data set with HepG2 cells [5] (HepG2, 72 h), 16.2 ± 1.1%.
As for `COC(=O)C[C@H](NC(=O)[C@H](C)NC(=O)[C@@H](NC(=O)OCc1ccccc1)C(C)C)C(=O)CF` [Z-VAD(OMe)-FMK] (Cbz-Val-Ala-Asp(OMe)-CH2F), in the data set with HepG2 cells [1], the “effect of inhibitor pretreatment” value is “prevented the RCX-induced apoptosis”.
With `CC(=O)N[C@@H](CS)C(=O)O` [N-acetyl-L-cysteine], in the data set with HepG2 cells [4] (HepG2, 1 h pretreatment with 5 mM NAC, then 12 µM RCX for 24 h), the “protection against RCX-induced reduction in viable cells” value is given as “did not prevent the reduction in the number of viable cells”.
For the compound `Cc1ccc(-c2cn3c4c(sc3n2)CCCC4)cc1` [cyclic pifithrin-α], in the data set with HepG2 cells [1], the “effect of inhibitor pretreatment” value is “did not prevent the RCX-induced apoptosis”.
Regarding `O=c1[nH]cc(F)c(=O)[nH]1` [5-FU, 5-fluorouracil], the negative-log IC50 (pIC50) with WT SV40 MEF was 5.77. The compound also showed a pIC50 in the data set with BAD KO SV40 MEF of 5.14. Further, the “reduction of tumor weight” value in the data set with HepG2 cell xenografts was found to be 40.3%. The compound also had an Initial body weight in data set [6] (before treatment, RCX 2.5 mg/kg groups) of 25.2 ± 0.4 g. In [6] (i.p. 21 days, RCX 2.5 mg/kg), this compound came in with a Final body weight of 24.1 ± 1.7 g, a Heart relative weight of 0.5 ± 0.2 g/100 g body weight, a Kidney relative weight of 1.2 ± 0.4 g/100 g body weight and a Liver relative weight of 3.4 ± 0.7 g/100 g body weight. In addition, in data set [6] (i.p. 21 days, RCX 2.5 mg/kg), the Lung relative weight came out at 0.6 ± 0.2 g/100 g body weight and the Survival was 9/15. Also, in data set [6] (setting [9]), the “Differential leukocytes: Eosinophils” value is listed as 1.0%, the “Differential leukocytes: Lymphocytes” value came to 32.8%, the “Differential leukocytes: Monocytes” value is reported as 1.3% and the “Differential leukocytes: Neutrophils” value stood at 65.0%. Moreover, in data set [6] (setting [9]), the Erythrocytes is recorded as 8.4 ± 0.5 10^6cells/μL and the Total leukocytes is on record as 1.8 ± 0.3* 10^3cells/μL.
On to `N#CC(=C(/N)Sc1ccccc1N)/C(C#N)=C(/N)Sc1ccccc1N` [U-0126], for which, in the data set on HepG2 cells [1], the “effect of inhibitor pretreatment” value is on record as “prevented RCX-induced apoptosis”.
For `Oc1c2ccccc2c2c3c(cccc13)N=N2` [SP 600125], in the data set on HepG2 cells [1] (setting [8]), the “effect of inhibitor pretreatment” value is “did not prevent RCX-induced apoptosis”.
The compound `COc1cc(O)c(C(C)=O)c(OC)c1` [xanthoxylin, 2-hydroxy-4,6-dimethoxyacetophenone] showed a pIC50 in data set [7] of less than 3.89.
